Measurements published in PMC6074028 (Organic & biomolecular chemistry, 2009).
Like-named read-outs stand apart in the source and are kept apart here.

Legend:
[1] = target: T1, BaPanK (type-III pantothenate kinase from Bacillus anthracis) (Bacillus anthracis, UniProt Q81VX4); type: biochemical
[2] = target: T1, BaPanK (type-III pantothenate kinase from Bacillus anthracis); type: biochemical; remark: listed apart in the source

T1 sequence (Q81VX4 whole entry, looked up): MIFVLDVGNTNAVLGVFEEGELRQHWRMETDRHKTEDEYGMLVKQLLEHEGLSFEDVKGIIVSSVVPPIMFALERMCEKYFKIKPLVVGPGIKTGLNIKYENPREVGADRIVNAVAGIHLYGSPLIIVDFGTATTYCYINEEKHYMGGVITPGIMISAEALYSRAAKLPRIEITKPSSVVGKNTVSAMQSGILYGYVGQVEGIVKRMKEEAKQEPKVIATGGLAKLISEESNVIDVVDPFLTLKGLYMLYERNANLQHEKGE

| Compound | Km [1] [µM] | Km [2] [µM] |
| --- | --- | --- |
| CC(C)(CO)[C@@H](O)C(=O)NCCC(=O)O [pantothenate] | 275 | – |
| Nc1ncnc2c1ncn2[C@H]1C[C@H](O)[C@@H](COP(=O)(O)OP(=O)(O)OP(=O)(O)O)O1 [dATP] | – | 138 |
| Nc1ncnc2c1ncn2[C@@H]1O[C@H](COP(=O)(O)OP(=O)(O)OP(=O)(O)O)[C@@H](O)[C@H]1O [ATP] | – | 510 |
| Cc1cn([C@H]2C[C@H](O)[C@@H](COP(=O)(O)OP(=O)(O)OP(=O)(O)O)O2)c(=O)[nH]c1=O [dTTP] | – | 723 |
| Nc1nc2c(ncn2[C@H]2C[C@H](O)[C@@H](COP(=O)(O)OP(=O)(O)OP(=O)(O)O)O2)c(=O)[nH]1 [dGTP] | – | 117 |
